Measurements reported in patent US11529342B2, “Sorbic and benzoic acid and derivatives thereof enhance the activity of a neuropharmaceutical” (Los Angeles Biomedical Research Institute at Harbor-UCLA …, priority 2009, dated 2022).
“Also recorded” adds a separate entry of the source.

How the values were obtained:
Male 129 SVE adult mice [1] = experiment: Prepulse inhibition (PPI) of acoustic startle, amphetamine disruption; format: in vivo; conditions: for PPI, correction of disruption by amphetamine: sarcosine 200 mg/kg, benzoate 100 mg/kg or both, amphetamine 10 mg/kg 30 minutes before
Text: (§1) Therefore, to test the hypothesis that combinational NMDA-enhancing agent treatment has better efficacy than individual agent alone, we tested startle habituation and PPI in animals receiving single NMDA-enhancing agents, sarcosine (N-methylglycine, a glycine transporter-1 inhibitor), benzoate (a D-amino acid oxidase inhibitor), the combination of both agents or the vehicle. We also tested the hypothesis in a well accepted pharmacological model of schizophrenia, amphetamine--disruption of startle habituation and PPI.
For the systematic investigation of the neurobiological systems that modulate sensorimotor inhibition, startle magnitude was investigated. Startle magnitude is reduced when the pulse stimulus is preceded 30 to 500 msec by a weak prepulse. This inhibition (“gating”) of a motor response elicited by a weak sensory event, termed PPI, provides an operational measure of sensorimotor gating. Prepulse stimuli of 3, 6, or 12 dB above the 70 dB background noise inhibit the startle response elicited by 120-dB pulse stimuli.
Prestimuli used in intranodal studies of sensorimotor gating of acoustic startle are by the delivery of a discrete acoustic prepulse several msec before the startle pulse, with an intensity below startle threshold. […]
There were a total of 36 trials in the experiments. […] For each mouse the following metrics were determined: 1) Average response magnitude on pulse--only trials 1 to 6 and 32 to 36; 2)Average response magnitude in each of the four trial types between trials 7 and 31 inclusively (i.e., ten pulse-only trials and five each of the three prepulse variations). The first block of pulse-only trials were analyzed as measures of startle reactivity. The first and last blocks of pulse-only trials were analyzed together in a repeated measure ANOVA to assess habituation of acoustic startle across the test session. The […] (3, 6, or 12 dB above background) derived from trials 7 to 31 were used to assess PPI which was calculated for each mouse as: Percentage score: PPI=100%×{[pulse-only units−(prepulse pulse units)]/(pulse-only units)}. […]

Male 129 SVE adult mice [2] = experiment: Acoustic startle habituation in mice, with and without amphetamine disruption; format: in vivo; conditions: for startle habituation, correction of amphetamine-induced disruption: amphetamine 10 mg/kg 30 minutes before the experiment
Text: as §1
For habituation, we present six trials of a single acoustic stimulus to each mouse. To provide a consistent acoustic environment and to mask external noises, maintain a continuous background noise level of 70 dB within each startle chamber. We collected the peak or average response from each mouse on each of six trials, then averaged the six responses together for each mouse. Five more trials at the end of PPI were done. The results were averaged and compared to the original six trials. The difference of startle responses between the initial six and the last five trials were considered the amount of habituation. Analyses include the independent variable (e.g., vehicle or drug treatment) as a factor in analyses of variance (ANOVA) on the dependent measures (difference of the average of the first and last […]).
There were a total of 36 trials in the experiments. The three prepulse stimuli were with a duration of 20 msec. For each mouse the following metrics were determined: 1) Average response magnitude on pulse--only trials 1 to 6 and 32 to 36; 2)Average response magnitude in each of the four trial types between trials 7 and 31 inclusively (i.e., ten pulse-only trials and five each of the three prepulse variations). The first block of pulse-only trials were analyzed as measures of startle reactivity. The first and last blocks of pulse-only trials were analyzed together in a repeated measure ANOVA to assess habituation of acoustic startle across the test session. The […] (3, 6, or 12 dB above background) derived from trials 7 to 31 were used to assess PPI which was calculated for each mouse as: Percentage score: PPI=100%×{[pulse-only units−(prepulse pulse units)]/(pulse-only units)}.
Male 129 SVE adult mice were first tested at baseline. Four groups of 10 mice each were treated with sarcosine (200 mg/kg), benzoate (100 mg/kg), a combination of both sarcosine and benzoate (same doses as the individual treatment), or with vehicle for one week before the test. The mice continued to receive the drug until one week later when amphetamatine (10 mg/kg) was administered 30 minutes before the experiments.

rats = experiment: Forced swim test (FST); format: in vivo; conditions: 500 mg/kg; for Immobility time (%): 5-min test, vehicle 46.94 ± 4.6; for duration of immobility compared to the vehicle control group: FST
Experimental: Following acclimation at least 7 days in the animal facility prior to initiation of behavioral testing, the animals (rats) were subjected to the forced swim test (FST). The method of the […] has been used in previous animal studies of depression, which was modified by Cryan from the Porsolt's FST. (Porsolt et al, 1977; Cryan et al, 2002) The test was performed using a acrylic cylinder (diameter, 20 cm; height, 40 cm) filled to a height of 30 cm with 25° C. water. Rats were processed to a 15-min conditioning swim. Following 24 h after their first exposure, the rats were again placed in the swim apparatus for 5 min. The behavior of rats was observed 5 min after the administration of various drug treatments or 0.9% saline (control). All behavioral testing was conducted between 1600-1800 h. On. the study day, the total periods of immobility during the 5-min testing period were recorded using the EthoVision Basic V 3.1 analysis program (Noldus, Wageningen, Netherlands). For the present experiment, the immobility threshold was set at 15% and a fixed averaging interval of 1 second was chosen to smooth the mobility parameter in EthoVision software. Below the immobile threshold, the animal is considered immobile. Using the settings, the activity of all rats was analyzed automatically and quantitatively for mobility and numbers of crossing vertical central line in the FST.

schizophrenia patients [3] = experiment: 6-week randomized double-blind placebo-controlled add-on trial in schizophrenia, efficacy (PANSS, SANS, Quality of Life, GAF); format: in vivo, human; conditions: 1000-mg/day adjunctive to atypical antipsychotics, 6 weeks, n=18 per group
Experimental: The research protocol was approved by the Institutional Review Boards (IRB) of the institute. Patients were screened and evaluated by the research psychiatrists. After complete description of the study to the subjects, written informed consent was obtained in line with the IRB's guidelines. The Structured Clinical Interview for DSM-IV was conducted for the diagnosis.
The dosing for the concurrent antipsychotics (all atypical antipsychotics), was an optimal dosing strategy which minimize side effects, especially extrapyramidal side effects (EPS), and can still yield favorable efficacy. […]
All patients were then randomly assigned under double-blind conditions to receive a 6-week trial of placebo, or sodium benzoate (1 grams) daily. […] Patient's compliance and safety were closely monitored by the research psychiatrists and the inpatient nursing staff.
The primary outcome measures were psychopathology changes measured by PANSS (3) and, Scales for the Assessment of Negative symptoms (SANS) (4) total scores, Quality of Life scale (10 items for inpatient use) (1, 5), and Global Assessment of Function (Axis V in DSM IV) (2). […]
Clinical ratings were performed by the research psychiatrists who were trained and experienced in the rating scales. Inter-rater reliability was analyzed with the ANOVA test. […]

schizophrenia patients [4] = experiment: 6-week add-on trial in schizophrenia, safety and side-effect assessments; format: in vivo, human; conditions: 6 weeks
Text: All patients were then randomly assigned under double-blind conditions to receive a 6-week trial of placebo, or sodium benzoate (1 grams) daily. Patients were randomized in clusters of six subjects, without stratification, through a computer-generated randomization table to receive placebo or active drugs in a 1:1 ratio. To ensure concealment of the randomization assignment, study medication was provided in coded containers with supply of identical-appearing capsules of placebo or either of active compounds. The research pharmacist implemented random allocation and masked treatment assignment was communicated by telephone to research staff. Patients, caregivers, and investigators (except for the investigational pharmacist) were all masked to the assignment. Patient's compliance and safety were closely monitored by the research psychiatrists and the inpatient nursing staff.
Side-effect assessments included Simpson-Angus Rating Scale for EPS (6), Abnormal Involuntary Movement Scale (AIMS) for dyskinesia (7), and Barnes Akathesia Scale (8). Systemic side effects of treatments were evaluated by means of routine physical and neurological examinations, laboratory tests, and reviewed by applying the Udvalg for Kliniske Undersogelser (UKU) Side-effects Rating Scale (9).

[5] = mice, sarcosine 200 mg/kg, benzoate 100 mg/kg or both

SMILES: CC(N)Cc1ccccc1 (stereo not drawn) [amphetamine, reference compound]
- effect of amphetamine on PPI (Male 129 SVE adult mice [1]; amphetamine 10 mg/kg 30 minutes before the experiments): disrupted the inhibition in all treatments
- effect of amphetamine on startle habituation (Male 129 SVE adult mice [2]; mice, amphetamine 10 mg/kg 30 minutes before the experiments): disrupted the habituation

SMILES: C/C=C/C=C/C(=O)[O-].[K+] [Potassium Sorbate, potassium sorbate]
- Immobility time (%) (rats): 27.64 ± 6.2%
- duration of immobility compared to the vehicle control group (rats): decrease the duration of immobility significantly

SMILES: O=C([O-])c1ccccc1.[Na+] [Sodium Benzoate, sodium benzoate]
- positive and negative symptoms and quality of life versus placebo (schizophrenia patients [3]): significantly improve positive and negative symptoms and quality of life than placebo
- safety and tolerability (schizophrenia patients [4]; adjunctive therapy): good safety and tolerability
- treatment-emergent side effects (schizophrenia patients [4]; benzoate versus placebo): all mild, short-lived, and not warranting medical treatment
- Immobility time (%) (rats): 40.17 ± 3.3%
- duration of immobility compared to the vehicle control group (rats): decrease the duration of immobility significantly
- PPI, correction of disruption by amphetamine (Male 129 SVE adult mice [1]): partially corrected
- startle habituation (difference of startle responses between initial and last trials) (Male 129 SVE adult mice [2]; mice treated one week, sarcosine 200 mg/kg, benzoate 100 mg/kg or both, no amphetamine): close to the effect seen in the combination treatment
- startle habituation, correction of amphetamine-induced disruption (Male 129 SVE adult mice [2]; [5]): partially correct the deficit; also recorded: better than sarcosine and close to effect seen in the combination treatment; also recorded: only partially corrected the deficit; also recorded: better than sarcosine and close to that seen in the combination treatment

SMILES: CNCC(=O)O [sarcosine, N-methylglycine, reference compound]
- PPI, correction of disruption by amphetamine (Male 129 SVE adult mice [1]): partially corrected
- startle habituation, correction of amphetamine-induced disruption (Male 129 SVE adult mice [2]; [5]): combination treatment>benzoate>sarcosine
- startle habituation, correction of amphetamine-induced disruption (Male 129 SVE adult mice [2]; mice, sarcosine 200 mg/kg, benzoate 100 mg/kg or both, listed as NMG): partially correct the deficit; also recorded: only partially corrected the deficit
